Details: rat, in vivo, 50 mg/kg
Description: An intracolonic dosing composition containing 50 mg/kg of carrier 9 and 250 μg/kg of interferon in 50% propylene glycol was prepared. Rats were administered the dosing composition by intracolonic instillation.
Rats were administered, orally and by intracolonic instillation, dosing solutions of 1 mg/kg of interferon and no carrier.

O=C(O)CCCc1ccc(NC(=O)COc2ccccc2)cc1 [Compound 9]
Mean peak serum interferon concentration: 2611±695
